{"source": "patent US8466088B2", "about": "“Herbicidal compositions containing benzoylpyrazole compounds” (Ishihara Sangyo Kaisha, Ltd., priority 2007, dated 2013)", "key": {"crabgrass": {"test_system": "crabgrass", "experiment": "Example 1: pot test, foliar treatment, visually observed growth inhibition of crabgrass", "assay_type": "in vivo", "excerpt": "(§1) When the herbicidal activity in a case where two active ingredients are combined, is larger than the simple sum of the respective herbicidal activities of the two active ingredients (the expected activity), it is called a synergistic effect. The activity expected by the combination of two active ingredients can be calculated as follows (Colby S. R., “Weed”, vol. 15, p. 20-22, 1967). E=α+β−(α×β+100) where\n(§2) α: growth inhibition rate when treated with x (g/ha) of herbicide X,\n(§3) β: growth inhibition rate when treated with y (g/ha) of herbicide Y,\n(§4) E: growth inhibition rate expected when treated with x (g/ha) of herbicide X and y (g/ha) of herbicide Y.\n(§5) That is, when the actual growth inhibition rate (measured value) is larger than the growth inhibition rate by the above calculation (calculated value), the activity by the combination can be regarded as showing a synergistic effect.\n(§6) Upland field soil was put into a 1/1,000,000 hectare pot, and seeds of various plants were sown. When the respective plants reached predetermined leaf stage, herbicidal compositions in predetermined amounts were diluted with water in an amount corresponding to 300 L/ha and applied for foliar treatment by a small sprayer.\n(§7) Further, in accordance with the above Colby's formula, the growth inhibition rate (calculated value) was calculated. In Tables, with respect to the compound A, Compound Nos. in Table 1 or 3 are described, and with respect to other herbicidal compounds, common names are described."}, "velvetleaf": {"test_system": "velvetleaf", "experiment": "Example 1: pot test, foliar treatment, visually observed growth inhibition of velvetleaf", "assay_type": "in vivo, Abutilon theophrasti MEDIC.", "excerpt": "as §1, §2, §3, §4, §5, §6, §7"}, "various plants": {"test_system": "various plants", "experiment": "Example 1: pot test, foliar treatment, visually observed growth inhibition of other sown plants (Tables 5-1 to 5-137)", "assay_type": "in vivo", "conditions": "Ipomoea, foliar, ivyleaf morningglory 1.5 to 2.1 leaf stage, 14th day after application, read-out: Growth inhibition rate (%) of ivyleaf morningglory, Measured value", "excerpt": "as §1, §2, §3, §4, §5, §6\nas §7, with “On the 14th to 28th day after application, the state of growth of the respective plants was visually observed to determine the growth inhibition rate (measured value) in accordance with the following evaluation standard. Further,” for “Further,”"}}, "note": "Like-named read-outs stand apart in the source and are kept apart here."}
{"compound": "CCOCN(C(=O)CCl)c1c(C)cccc1CC", "note": "[Acetochlor]", "values": [{"measurement": "inhibition at 400 g/ha", "setting": "crabgrass; Digitaria sanguinalis, foliar, 3.3 to 4.2 leaf stage, 24th day after application, 400 g/ha, read-out: Growth inhibition rate (%) of crabgrass, Measured value", "result": 0, "unit": "%"}, {"measurement": "inhibition at 600 g/ha", "setting": "crabgrass; Digitaria sanguinalis, foliar, 3.3 to 4.2 leaf stage, 24th day after application, 600 g/ha, read-out: Growth inhibition rate (%) of crabgrass, Measured value", "result": 0, "unit": "%"}, {"measurement": "inhibition at 800 g/ha", "setting": "crabgrass; Digitaria sanguinalis, foliar, 3.3 to 4.2 leaf stage, 24th day after application, 800 g/ha, read-out: Growth inhibition rate (%) of crabgrass, Measured value", "result": 0, "unit": "%"}, {"measurement": "inhibition at 1600 g/ha", "setting": "crabgrass; Digitaria sanguinalis, foliar, 3.3 to 4.2 leaf stage, 24th day after application, 1600 g/ha, read-out: Growth inhibition rate (%) of crabgrass, Measured value", "result": 0, "unit": "%"}, {"measurement": "inhibition at 150 g/ha", "setting": "velvetleaf; Abutilon theophrasti, foliar, 2.0 to 2.5 leaf stage, 21st day after application, 150 g/ha, read-out: Growth inhibition rate (%) of velvetleaf, Measured value", "result": 0, "unit": "%"}, {"measurement": "inhibition at 150 g/ha", "setting": "velvetleaf; Abutilon theophrasti, foliar, 3.3 to 4.2 leaf stage, 22nd day after application, 150 g/ha, read-out: Growth inhibition rate (%) of velvetleaf, Measured value", "result": 0, "unit": "%"}, {"measurement": "inhibition at 300 g/ha", "setting": "velvetleaf; Abutilon theophrasti, foliar, 3.3 to 4.2 leaf stage, 22nd day after application, 300 g/ha, read-out: Growth inhibition rate (%) of velvetleaf, Measured value", "result": 0, "unit": "%"}, {"measurement": "inhibition at 100 g/ha", "setting": "various plants; 100 g/ha", "result": 0, "unit": "%"}, {"measurement": "inhibition at 150 g/ha", "setting": "various plants; 150 g/ha", "result": 0, "unit": "%"}, {"measurement": "inhibition at 200 g/ha", "setting": "various plants; 200 g/ha", "result": 0, "unit": "%"}]}
{"compound": "CCCCCCCC(=O)Oc1c(Br)cc(C#N)cc1Br", "note": "[Bromoxynil-octanoate]", "values": [{"measurement": "inhibition at 63 g/ha", "setting": "crabgrass; Digitaria sanguinalis, foliar, 3.5 to 4.0 leaf stage, 21st day after application, 63 g/ha, read-out: Growth inhibition rate (%) of crabgrass, Measured value", "result": 0, "unit": "%"}, {"measurement": "inhibition at 63 g/ha", "setting": "velvetleaf; Abutilon theophrasti, foliar, 2.0 to 2.5 leaf stage, 21st day after application, read-out: Growth inhibition rate (%) of velvetleaf, Measured value", "result": 25, "unit": "%"}, {"measurement": "inhibition at 50 g/ha", "setting": "velvetleaf; Abutilon theophrasti, foliar, 3.0 to 3.8 leaf stage, 15th day after application, read-out: Growth inhibition rate (%) of velvetleaf, Measured value", "result": 0, "unit": "%"}, {"measurement": "inhibition at 50 g/ha", "setting": "velvetleaf; Abutilon theophrasti, foliar, 3.2 to 5.0 leaf stage, 14th day after application, read-out: Growth inhibition rate (%) of velvetleaf, Measured value", "result": 20, "unit": "%"}, {"measurement": "inhibition at 50 g/ha", "setting": "velvetleaf; Abutilon theophrasti, foliar, 3.2 to 5.0 leaf stage, 21st day after application, read-out: Growth inhibition rate (%) of velvetleaf, Measured value", "result": 10, "unit": "%"}, {"measurement": "inhibition at 63 g/ha", "setting": "velvetleaf; Abutilon theophrasti, foliar, 3.3 to 4.2 leaf stage, 22nd day after application, read-out: Growth inhibition rate (%) of velvetleaf, Measured value", "result": 45, "unit": "%"}, {"measurement": "inhibition at 125 g/ha", "setting": "velvetleaf; Abutilon theophrasti, foliar, 3.3 to 4.2 leaf stage, 22nd day after application, 125 g/ha, read-out: Growth inhibition rate (%) of velvetleaf, Measured value", "result": 50, "unit": "%"}, {"measurement": "inhibition at 50 g/ha", "setting": "velvetleaf; Abutilon theophrasti, foliar, 3.5 to 4.3 leaf stage, 21st day after application, read-out: Growth inhibition rate (%) of velvetleaf, Measured value", "result": 0, "unit": "%"}]}
{"compound": "CCn1ncc(C(=O)c2ccc(S(C)(=O)=O)c(OCCOC)c2C)c1OC(=O)SC(C)C", "note": "[No. 208]", "values": [{"measurement": "Growth inhibition rate (%) of crabgrass, Measured value", "setting": "crabgrass; 2.7 to 3.6 leaf stage, 21st day after application, 7.75 g/ha", "result": 83, "unit": "%"}, {"measurement": "Growth inhibition rate (%) of crabgrass, Measured value", "setting": "crabgrass; 2.7 to 3.6 leaf stage, 21st day after application, 15.5 g/ha", "result": 83, "unit": "%"}, {"measurement": "Growth inhibition rate (%) of velvetleaf, Measured value", "setting": "velvetleaf; 3.2 to 4.1 leaf stage, 21st day after application, 7.75 g/ha", "result": 73, "unit": "%"}, {"measurement": "Growth inhibition rate (%) of velvetleaf, Measured value", "setting": "velvetleaf; 3.2 to 4.1 leaf stage, 21st day after application, 15.5 g/ha", "result": 73, "unit": "%"}]}
{"compound": "NCCO.O=C(O)c1nc(Cl)ccc1Cl", "note": "[Clopyralid-olamine]", "values": [{"measurement": "Growth inhibition rate (%) of crabgrass, Measured value", "setting": "crabgrass; 3.0 to 4.3 leaf stage, 21st day after application, 100 g/ha", "result": 0, "unit": "%"}, {"measurement": "Growth inhibition rate (%) of velvetleaf, Measured value", "setting": "velvetleaf; 3.3 to 4.3 leaf stage, 20th day after application, 150 g/ha", "result": 5, "unit": "%"}, {"measurement": "Growth inhibition rate (%) of velvetleaf, Measured value", "setting": "velvetleaf; 3.3 to 4.3 leaf stage, 20th day after application, 300 g/ha", "result": 10, "unit": "%"}, {"measurement": "Growth inhibition rate (%) of velvetleaf, Measured value", "setting": "velvetleaf; 3.5 to 4.1 leaf stage, 14th day after application, 150 g/ha", "result": 20, "unit": "%"}, {"measurement": "Growth inhibition rate (%) of velvetleaf, Measured value", "setting": "velvetleaf; 3.5 to 4.1 leaf stage, 14th day after application, 300 g/ha", "result": 20, "unit": "%"}]}
{"compound": "COCCOc1c(S(C)(=O)=O)ccc(C(=O)c2cnn(C)c2O)c1C", "note": "[No. 2-28]", "values": [{"measurement": "Growth inhibition rate (%) of crabgrass, Measured value", "setting": "crabgrass; 3.5 to 5.0 leaf stage, 22nd day after application, 7 g/ha", "result": 88, "unit": "%"}, {"measurement": "Growth inhibition rate (%) of crabgrass, Measured value", "setting": "crabgrass; 3.5 to 5.0 leaf stage, 22nd day after application, 15 g/ha", "result": 93, "unit": "%"}, {"measurement": "Growth inhibition rate (%) of crabgrass, Measured value", "setting": "crabgrass; 3.6 to 4.5 leaf stage, 14th day after application, 7 g/ha", "result": 90, "unit": "%"}, {"measurement": "Growth inhibition rate (%) of crabgrass, Measured value", "setting": "crabgrass; 3.6 to 4.5 leaf stage, 14th day after application, 15 g/ha", "result": 97, "unit": "%"}, {"measurement": "Growth inhibition rate (%) of crabgrass, Measured value", "setting": "crabgrass; 3.6 to 4.5 leaf stage, 22nd day after application, 7 g/ha", "result": 93, "unit": "%"}, {"measurement": "Growth inhibition rate (%) of crabgrass, Measured value", "setting": "crabgrass; 4.1 to 5.3 leaf stage, 14th day after application, 15 g/ha", "result": 85, "unit": "%"}, {"measurement": "Growth inhibition rate (%) of crabgrass, Measured value", "setting": "crabgrass; 4.1 to 5.3 leaf stage, 20th day after application, 7 g/ha", "result": 85, "unit": "%"}, {"measurement": "Growth inhibition rate (%) of crabgrass, Measured value", "setting": "crabgrass; 4.1 to 5.3 leaf stage, 20th day after application, 15 g/ha", "result": 97, "unit": "%"}, {"measurement": "Growth inhibition rate (%) of crabgrass, Measured value", "setting": "crabgrass; 4.3 to 4.5 leaf stage, 20th day after application, 15 g/ha", "result": 80, "unit": "%"}, {"measurement": "Growth inhibition rate (%) of velvetleaf, Measured value", "setting": "velvetleaf; 3.3 to 4.2 leaf stage, 14th day after application, 7 g/ha", "result": 93, "unit": "%"}, {"measurement": "Growth inhibition rate (%) of velvetleaf, Measured value", "setting": "velvetleaf; 3.3 to 4.2 leaf stage, 14th day after application, 15 g/ha", "result": 97, "unit": "%"}, {"measurement": "Growth inhibition rate (%) of velvetleaf, Measured value", "setting": "velvetleaf; 3.3 to 4.2 leaf stage, 22nd day after application, 7 g/ha", "result": 93, "unit": "%"}, {"measurement": "Growth inhibition rate (%) of velvetleaf, Measured value", "setting": "velvetleaf; 3.3 to 4.2 leaf stage, 22nd day after application, 15 g/ha", "result": 97, "unit": "%"}, {"measurement": "Growth inhibition rate (%) of velvetleaf, Measured value", "setting": "velvetleaf; 3.5 to 4.0 leaf stage, 14th day after application, 7 g/ha", "result": 83, "unit": "%"}, {"measurement": "Growth inhibition rate (%) of velvetleaf, Measured value", "setting": "velvetleaf; 3.5 to 4.0 leaf stage, 14th day after application, 15 g/ha", "result": 95, "unit": "%"}, {"measurement": "Growth inhibition rate (%) of velvetleaf, Measured value", "setting": "velvetleaf; 3.5 to 4.0 leaf stage, 22nd day after application, 7 g/ha", "result": 90, "unit": "%"}, {"measurement": "Growth inhibition rate (%) of velvetleaf, Measured value", "setting": "velvetleaf; 3.5 to 4.1 leaf stage, 14th day after application, 7 g/ha", "result": 75, "unit": "%"}, {"measurement": "Growth inhibition rate (%) of velvetleaf, Measured value", "setting": "velvetleaf; 3.5 to 4.1 leaf stage, 14th day after application, 15 g/ha", "result": 85, "unit": "%"}, {"measurement": "Growth inhibition rate (%) of velvetleaf, Measured value", "setting": "velvetleaf; 3.5 to 4.1 leaf stage, 20th day after application, 7 g/ha", "result": 75, "unit": "%"}, {"measurement": "Growth inhibition rate (%) of velvetleaf, Measured value", "setting": "velvetleaf; 3.5 to 4.1 leaf stage, 20th day after application, 15 g/ha", "result": 88, "unit": "%"}]}
{"compound": "CCOCCN(C(=O)CCl)C(=C(C)C)c1ccccc1", "note": "[Pethoxamid]", "values": [{"measurement": "Growth inhibition rate (%) of crabgrass, Measured value", "setting": "crabgrass; 3.5 to 5.0 leaf stage, 22nd day after application, 100 g/ha", "result": 0, "unit": "%"}, {"measurement": "Growth inhibition rate (%) of velvetleaf, Measured value", "setting": "velvetleaf; 3.5 to 4.0 leaf stage, 14th day after application, 200 g/ha", "result": 60, "unit": "%"}]}
